From the NIST ThermoML archive (doi:10.1021/acs.jced.5b00105)

Key:
[1] = xn = mol fraction of the nth substance listed; details: x2 = 0; for surface tension liquid-gas: Drop volume; for viscosity / mass density: 100 kPa, Liquid; for viscosity: Concentric cylinders viscometry; for mass density: Vibrating tube method
[2] = refractive index (Na D-line) (dimensionless); xn = mol fraction of the nth substance listed; details: 100 kPa, Liquid, x2 = 0
[3] = for surface tension liquid-gas: Drop volume; for viscosity / mass density: 100 kPa, Liquid; for viscosity: Concentric cylinders viscometry; for mass density: Vibrating tube method
[4] = refractive index (Na D-line) (dimensionless); details: 100 kPa, Liquid

CC(C)CC(C)(C)C [2,2,4-trimethylpentane] + CCC1CCCCC1
Details | mass density, [1] [kg/m3] | refractive index, [2] | surface tension liquid-gas, [1] [mN/m] | viscosity, [1] [mPa·s]
293.15 K | 691.91 | 1.3921 | 18.94 | 0.518
298.15 K | 687.82 | 1.3886 | 18.39 | 0.493
303.15 K | 683.68 | 1.3876 | 17.99 | 0.47
308.15 K | 679.51 | 1.3848 | 17.58 | 0.449
313.15 K | 675.32 | 1.3833 | – | 0.43
318.15 K | 671.05 | 1.3785 | – | 0.414
323.15 K | 666.8 | 1.376 | – | 0.398
333.15 K | 658.2 | – | – | 0.371
343.15 K | 649.44 | – | – | 0.348

CC1CCCCC1 [methylcyclohexane]
Details | mass density, [3] [kg/m3] | refractive index, [4] | surface tension liquid-gas, [3] [mN/m] | viscosity, [3] [mPa·s]
293.15 K | 769.35 | 1.4232 | 23.87 | 0.735
298.15 K | 765.05 | 1.4199 | 23.02 | 0.692
303.15 K | 760.71 | 1.419 | 22.55 | 0.651
308.15 K | 756.37 | 1.4168 | 22.12 | 0.615
313.15 K | 752 | 1.415 | – | 0.58
318.15 K | 747.58 | 1.4102 | – | 0.549
323.15 K | 743.17 | 1.4078 | – | 0.522
333.15 K | 734.29 | – | – | 0.476
343.15 K | 725.31 | – | – | 0.439

CC(C)CC(C)(C)C [2,2,4-trimethylpentane]
Details | mass density, [3] [kg/m3] | refractive index, [4] | surface tension liquid-gas, [3] [mN/m] | viscosity, [3] [mPa·s]
293.15 K | 691.91 | 1.3921 | 18.94 | 0.518
298.15 K | 687.82 | 1.3886 | 18.39 | 0.493
303.15 K | 683.68 | 1.3876 | 17.99 | 0.47
308.15 K | 679.51 | 1.3848 | 17.58 | 0.449
313.15 K | 675.32 | 1.3833 | – | 0.43
318.15 K | 671.05 | 1.3785 | – | 0.414
323.15 K | 666.8 | 1.376 | – | 0.398
333.15 K | 658.2 | – | – | 0.371
343.15 K | 649.44 | – | – | 0.348
